Experiment: solvent given as SMILES

COc1ccc2cc(C#Cc3ccc([N+](=O)[O-])cc3)ccc2c1
absorption maximum (in C1CCOC1): 356 nm
absorption maximum (in ClC(Cl)Cl): 360 nm
absorption maximum (in ClCCl): 356 nm

F[Si-](F)(c1ccccc1)(c1ccccc1)c1cc2ccccc2c2ccccc12
absorption maximum (in C1CCOC1): 303 nm

Fc1cccc(F)c1[B-]1(c2c(F)cccc2F)Oc2c(ccc3c4c(ccc23)C=[N+](c2ccccc2)[B-](c2c(F)cccc2F)(c2c(F)cccc2F)O4)C=[N+]1c1ccccc1
absorption maximum (in Cc1ccccc1): 538 nm
absorption maximum (in ClCCl): 534 nm

COc1ccc(-c2nc(-c3ccc(-c4nc(-c5ccc(OC)cc5)c(-c5ccc(OC)cc5)[nH]4)s3)[nH]c2-c2ccc(OC)cc2)cc1
absorption maximum (in CC#N): 365 nm

CC(=O)c1c(N[C@@H](Cc2ccc(O)cc2)C(=O)O)c2ccc(N(C)C)cc2oc1=O
absorption maximum (in ClCCl): 368 nm

COc1ccc2c3c(cccc13)C(=O)c1ccccc1-2
absorption maximum (in CC(C)=O): 421.05 nm
absorption maximum (in CCCCOCCCC): 412.03 nm
absorption maximum (in CCOC(C)=O): 418.06 nm
absorption maximum (in CCOCC): 414.08 nm
absorption maximum (in Clc1ccccc1): 423.01 nm
absorption maximum (in O=C1CCCCC1): 421.94 nm

CCCC1(CCC)c2cc(-c3ccc(C(C)(C)C)cc3)ccc2-c2ccc(-c3ccc4c(c3)C(CCC)(CCC)c3cc(-c5ccc(C(C)(C)C)cc5)ccc3-4)cc21
absorption maximum (in C1CCCCC1): 346 nm

COC(=O)c1[nH]c(-c2ccc(Br)cc2)c2nnc3ccc(OC)cc3c12
absorption maximum (in ClCCl): 395 nm

CC(C)(C)c1ccc2c(c1)c1cc(C(C)(C)C)ccc1n2-c1ccc(S(=O)(=O)c2cccc(S(=O)(=O)c3ccc(-n4c5ccc(C(C)(C)C)cc5c5cc(C(C)(C)C)ccc54)cc3)c2)cc1
absorption maximum (in Cc1ccccc1): 348 nm

COc1ccc(-c2cc(C)nc(-c3ccc(-n4c5ccccc5c5ccccc54)cc3)n2)cc1
absorption maximum (in C1CCOC1): 339 nm
absorption maximum (in CN(C)C=O): 340 nm
absorption maximum (in Cc1ccccc1): 341 nm
absorption maximum (in ClC(Cl)Cl): 342 nm

C=Cc1cc(OC)cc(OC)c1
absorption maximum (in C1CCCCC1): 299 nm

O=C1C2=C(O[B-](F)(F)[n+]3c2ccc2ccccc23)c2ccc(N3CCOCC3)c3cccc1c23
absorption maximum (in C1CCOC1): 464 nm
absorption maximum (in CC#N): 468 nm
absorption maximum (in CCO): 460 nm
absorption maximum (in CO): 461 nm
absorption maximum (in ClCCl): 468 nm

CCCCN1/C(=C/C=C/C2=[N+](C)c3ccccc3C2(C)C)C(C)(C)c2cc(OC)ccc21
absorption maximum (in CS(C)=O): 566 nm

c1cc2ccc3ccc(OP4(Oc5ccc6ccc7cccc8ccc5c6c78)=NP(Oc5ccc6ccc7cccc8ccc5c6c78)(Oc5ccc6ccc7cccc8ccc5c6c78)=NP(Oc5ccc6ccc7cccc8ccc5c6c78)(Oc5ccc6ccc7cccc8ccc5c6c78)=N4)c4ccc(c1)c2c34
absorption maximum (in ClCCl): 343 nm

CC(C)(C)c1ccc(-c2c(-c3cccc(N(c4ccccc4)c4ccccc4)c3)c(C#N)c(-c3cccc(N(c4ccccc4)c4ccccc4)c3)c(-c3ccc(C(C)(C)C)cc3)c2-c2ccc(C(C)(C)C)cc2)cc1
absorption maximum (in C1CCOC1): 297 nm

FC(F)(F)c1ccc2oc3nc4oc5ccc(N6c7ccccc7Oc7ccccc76)cc5c4cc3c2c1
absorption maximum (in ClC(Cl)Cl): 344 nm

CCOC(=O)c1cc(C(=O)OCC)c2cc(OC)ccc2n1
absorption maximum (in CCO): 355 nm

CC1(C)c2ccccc2N(c2ccc3c(c2)c2cc(N4c5ccccc5C(C)(C)c5ccccc54)ccc2c2nc4ccccc4nc32)c2ccccc21
absorption maximum (in Cc1ccccc1): 380 nm

CC1(C)c2ccccc2N(c2ccc(C(=C(C#N)C#N)c3ccc(N4c5ccccc5C(C)(C)c5ccccc54)cc3)cc2)c2ccccc21
absorption maximum (in Cc1ccccc1): 436 nm

CCCCCCCC(=O)Oc1ccc2c3cccc4c(OC(=O)CCCCCCC)ccc(c5cccc1c52)c43
absorption maximum (in C1CCOC1): 445 nm
absorption maximum (in Cc1ccccc1): 448 nm
absorption maximum (in ClC(Cl)(Cl)Cl): 448 nm
absorption maximum (in ClC(Cl)Cl): 446 nm
absorption maximum (in ClCCl): 445 nm
absorption maximum (in c1ccncc1): 449 nm

COc1ccc(/C=C/c2nc3c4ccccc4c4ccccc4c3o2)cc1
absorption maximum (in CC#N): 368 nm

Cc1cc2ccccc2c2c1c1ccccc1n2-c1ccccc1
absorption maximum (in ClCCl): 303 nm

COC(=O)C(NC(=O)OC(C)(C)C)c1ccc2oc(-c3cc(OC)c(OC)c(OC)c3)nc2c1 (stereo unspecified)
absorption maximum (in CC1CCCCC1): 327 nm
absorption maximum (in CC#N): 312 nm
absorption maximum (in CO): 313 nm

CCCCCCOc1ccc2oc3c(c2c1)=CC1=C(c2ccccc2C)c2cc4c5cc(OCCCCCC)ccc5oc4n2[B-](F)(F)[N+]=31
absorption maximum (in C1CCCCC1): 592 nm
absorption maximum (in CCOC(C)=O): 587 nm
absorption maximum (in CO): 585 nm

CCCCCCCCc1ccc(-c2c3cc(-c4cc(CCCCCCCC)c(-c5ccc(-c6sc(/C=C7\SC(SCC)=NC7=O)cc6CCCCCCCC)s5)s4)sc3c(-c3ccc(CCCCCCCC)s3)c3cc(-c4cc(CCCCCCCC)c(-c5ccc(-c6sc(/C=C7\SC(SCC)=NC7=O)cc6CCCCCCCC)s5)s4)sc23)s1
absorption maximum (in ClC(Cl)Cl): 500 nm

O=C(N/N=C/c1ccccc1O)c1ccc([N+](=O)[O-])cc1
absorption maximum (in C1CCOC1): 338 nm
absorption maximum (in CC#N): 339 nm
absorption maximum (in CC(C)=O): 350 nm
absorption maximum (in CCO): 345 nm
absorption maximum (in CN(C)C=O): 380 nm
absorption maximum (in CS(C)=O): 342 nm
absorption maximum (in ClCCl): 340 nm

NNC(=O)N1C(=O)c2cc(S(=O)(=O)[O-])cc3c(N)c(S(=O)(=O)[O-])cc(c23)C1=O
absorption maximum (in O): 458 nm

C#Cn1c(-c2cc(-c3nc4ccccc4n3C#C)cc(-c3nc4ccccc4n3C#C)c2)nc2ccccc21
absorption maximum (in ClCCl): 305.5 nm

Clc1ccc(/C=C/c2nc3ccccc3s2)cc1
absorption maximum (in C1CCCCC1): 340 nm
absorption maximum (in CO): 340 nm

Cc1ccc(-c2ccc(/C=C/c3ccc(Cl)cc3)cn2)nc1
absorption maximum (in CC#N): 337 nm

COc1ccc(C2=C3C(C)=CC(C=Cc4ccc(C(=O)OC5C[C@H]6CCC5(C)C6(C)C)cc4)=[N+]3[B-](F)(F)n3c(/C=C/c4ccc(C(=O)OC5CC6CCC5(C)C6(C)C)cc4)cc(C)c32)cc1 (stereo partly specified)
absorption maximum (in Cc1ccccc1): 640 nm

COC(=O)c1nc2cnc(N(C)C)nc2n1Cc1ccccc1
absorption maximum (in C1COCCO1): 358 nm
absorption maximum (in CC#N): 359 nm
absorption maximum (in CO): 362 nm
absorption maximum (in ClCCl): 362 nm

N#Cc1ccc(C#Cc2ncc(-c3ccccc3)o2)cc1
absorption maximum (in ClCCl): 345 nm

CCCCCCCCOc1ccc(C#Cc2ccc3oc4ccccc4c3c2)c(OCCCCCCCC)c1
absorption maximum (in ClCCl): 314 nm

COc1ccc(C#Cc2c3cc4ccccc4cc3c(C#Cc3ccc(OC)cc3)c3cc4ccccc4cc23)cc1
absorption maximum (in ClCCl): 666 nm

COC1=[N+]2C(=C(c3ccc(C)cc3)c3ccc(OC)n3[B-]2(F)F)C=C1
absorption maximum (in C1CCCCC1): 513 nm
absorption maximum (in C1CCOC1): 514 nm
absorption maximum (in CC#N): 510 nm
absorption maximum (in CCOC(C)=O): 512 nm
absorption maximum (in CO): 510 nm
absorption maximum (in Cc1ccccc1): 517 nm
absorption maximum (in ClC(Cl)Cl): 516 nm

CC(=O)c1ccn2c3c(c(-c4cc[n+](C)cc4)c2c1)CN(C)C3=O
absorption maximum (in O): 429 nm

[NH3+]C(Cc1ccccc1)C(=O)[O-] (stereo unspecified)
absorption maximum (in O): 258 nm

c1ccc(-c2nc3c(ccc4[nH]ccc43)o2)cc1
absorption maximum (in C1CCCCC1): 331 nm
absorption maximum (in C1COCCO1): 333 nm
absorption maximum (in CC#N): 320 nm
absorption maximum (in CO): 325 nm
absorption maximum (in Cc1ccccc1): 322 nm
absorption maximum (in O): 321 nm

CCCCCCN1C(=O)c2cccc3cc(/N=C\c4nc5ccccc5s4)cc(c23)C1=O
absorption maximum (in ClC(Cl)Cl): 370 nm

CCCCCCCCC1(CCCCCCCC)c2cc(-c3ccc(C=C4C(=O)c5ccccc5C4=O)cc3)ccc2-c2ccc(-c3ccc(C=C4C(=O)c5ccccc5C4=O)cc3)cc21
absorption maximum (in C1CCOC1): 436 nm
absorption maximum (in CC(C)=O): 433 nm
absorption maximum (in CCCCCC): 419 nm
absorption maximum (in CS(C)=O): 441 nm
absorption maximum (in Cc1ccccc1): 429 nm
absorption maximum (in ClC(Cl)Cl): 444 nm

O=C(O)CCCCCn1c2ccccc2c(=O)c2ccccc21
absorption maximum (in O): 410 nm

C(S/C=C/c1ccc(/C=C/SC=C2CCCC2)cc1)=C1CCCC1
absorption maximum (in ClCCl): 350 nm

CCOc1ccc2c(-c3nc(-c4ccccc4Cl)no3)cc(=O)oc2c1
absorption maximum (in CCO): 393 nm
absorption maximum (in ClC(Cl)Cl): 394 nm

COc1ccc(C2=C(c3ccccc3)C(c3ccccc3)=[N+]3C2=Nc2c(-c4ccc(OC)cc4)c(-c4ccccc4)c(-c4ccccc4)n2[B-]3(F)F)cc1
absorption maximum (in Cc1ccccc1): 656 nm

F[Si-](F)(c1ccccc1)(c1ccccc1)c1cccc2ccccc12
absorption maximum (in C1CCOC1): 286 nm

CCCCCCc1ccc(-n2c3c(c4c2c2c(n4-c4ccc(CCCCCC)cc4)-c4cccc(OC)c4NB2c2ccccc2)B(c2ccccc2)Nc2c(OC)cccc2-3)cc1
absorption maximum (in Cc1ccccc1): 382 nm

N#C/C(=C\c1ccc(/C=C/c2ccc(N(c3ccccc3)c3ccccc3)cc2)s1)C(=O)O
absorption maximum (in ClCCl): 490 nm

c1ccc2c(c1)[nH]c1ncccc12
absorption maximum (in CC#N): 338 nm
absorption maximum (in CCCCCC): 336 nm

c1ccc2c(c1)Sc1ccccc1N2c1ccc2c(c1)C1(CC1)c1cc(N3c4ccccc4Sc4ccccc43)ccc1-2
absorption maximum (in Cc1ccccc1): 307 nm

COc1ccc(N(c2ccc(OC)cc2)c2ccc(-c3ccc(-c4ccc(-c5ccc(-c6ccc(N(c7ccc(OC)cc7)c7ccc(OC)cc7)cc6)s5)c5nsnc45)s3)cc2)cc1
absorption maximum (in ClC(Cl)Cl): 545 nm

CCN(CC)c1ccc2cc(/C(Cl)=C/C=C/C(=C(C#N)C#N)c3ccc4c(c3)c3ccccc3n4CC)c(=O)oc2c1
absorption maximum (in CC(C)=O): 518 nm
absorption maximum (in CCOC(C)=O): 508 nm
absorption maximum (in CN(C)C=O): 532 nm
absorption maximum (in CS(C)=O): 538 nm
absorption maximum (in Cc1ccccc1): 508 nm
absorption maximum (in ClCCl): 526 nm

c1ccc2c(c1)-c1ccccc1C21c2ccccc2-c2oc3c(c21)C1(c2ccccc2-c2ccccc21)c1ccccc1-3
absorption maximum (in C1CCOC1): 367 nm

O=C1C=C(Nc2ccccc2)C(=O)c2ccccc21
absorption maximum (in CCCCCC): 450 nm
absorption maximum (in CO): 466 nm

O=c1c(-c2ccc(O)cc2)coc2cc(O)cc(O)c12
absorption maximum (in CC#N): 360 nm
absorption maximum (in CCO): 340 nm

CCCCCCCCCCCCn1cccc1/C=C/c1ccc(OCCCC)c2c(/C=C/c3cccn3CCCCCCCCCCCC)ccc(OCCCC)c12
absorption maximum (in Cc1ccccc1): 375 nm

C(=C(c1ccccc1)c1ccccc1)c1ccc(-c2cc(-c3ccc(C=C(c4ccccc4)c4ccccc4)cc3)cc(-c3ccc(C=C(c4ccccc4)c4ccccc4)cc3)c2)cc1
absorption maximum (in C1CCOC1): 333 nm
